# Measured values published in patent publication US10633374B2, “Small molecule based antibody-recruiting compounds for cancer treatment” (YALE UNIVERSITY, priority 2015, dated 2020).
# Columns and labels:
# [1] = target: T1, recombinant uPAR (Homo sapiens, UniProt Q03405); experiment: Fluorescence quenching titration of ARM-U2 derivatives with uPAR; format: binding; conditions: fluorescence titration of 100 nM derivative with increasing uPAR; read-out: Kd, solution equilibrium dissociation constant with uPAR
# T1 construct: purchased R&D systems
# Method: Selected ARM-U2 derivatives were assayed for their ability to bind recombinant uPAR using a fluorescence quenching assay. […] Increasing concentrations of recombinant uPAR were mixed with each compound containing aliquot and the fluorescence of the solution measured following 1 h equilibration times. […] To confirm that the observation of uPAR dependent fluorescence quenching was indeed due to specific binding to uPAR and to validate ARM-U2 binding to uPAR specifically via the uPA binding site, a direct binding ELISA assay was developed. In this assay, clear 96-well high-binding plates from CoStar, were loaded with 100 μl/well of 50 nM recombinant uPAR 807-UK-100-CF from R&D systems prepared from a 100 μg/ml (approx. 2.1 μM) stock of uPAR in PBS and left overnight at room temperature to equilibrate. Following equilibration, the plate was washed with wash buffer 1× (400 μl/well of 0.05% Tween/PBS), blotted dry and blocked for 1 hr with 300 ul/well of 2% BSA/PBS. Following blocking, the plate was washed with 400 ul of the wash buffer and blotted dry. […] The absorbance at 450 nm was measured using an in-house Perkin-Elmer fluorescence plate reader.
# All ARM-U2 derivatives were assessed for their ability to bind selectively to recombinant uPAR in vitro using a competitive ELISA binding assay. […] Selective binding to uPAR by ARM-U2 at the uPA binding site competes with uPAR-uPA binding which is required for a positive UV 450 nm absorbance signal. Increasing concentrations of ARM-U2 displace increasing amounts of uPAR from uPA which is detected by anti-uPAR/biotin labeled antibodies followed by avidin-HRP. The sigmoidal binding isotherm of absorbance at 450 nm vs log ARM-U2 concentration can then by fit by non-linear regression analysis to obtain the IC50 for ARM-U2/uPAR binding (Equation S2) which can then be translated into a KI for ARM-U2/uPAR binding using a competitive binding model adapted from the Cheng-Prusoff equation relating KI to IC50 (Equation S3). […]
# [2] = target: T2, uPAR (uPA binding site) (Homo sapiens, UniProt Q03405); experiment: Competitive ELISA uPAR binding assay (immobilized urokinase); conditions: at the uPA binding site
# T2 construct: purchased R&D systems
# Method: The affinity of ARM-U2 derivatives differing in both the length of the DNP-linker substituted at position 2 of ring C and the display of negative charge density (FIG. 8, Table 1) for uPAR were assayed using a competitive ELISA binding assay. The assay involves the immobilization of urokinase, a natural high affinity ligand for uPAR followed by the addition of a fixed concentration of recombinant uPAR protein and increasing concentrations of ARM-U2 which competes with urokinase for binding to the uPA binding site of uPAR. Following several washing steps, the amount of uPAR bound is quantified by a biotinylated anti-uPAR antibody and avidin-HRP and can be fit to a competitive binding model allowing for the extraction of the uPAR/ARM-U2 Kd.
# All ARM-U2 derivatives were assessed for their ability to bind selectively to recombinant uPAR in vitro using a competitive ELISA binding assay. DMSO stock solutions of each ARM-U2 derivative stored at −20° C. were titrated into wells pre-coated with human urokinase (isolated from human urine, ProSpec 1 mg/ml deI water 18.5 μM) in the presence of uPAR. Selective binding to uPAR by ARM-U2 at the uPA binding site competes with uPAR-uPA binding which is required for a positive UV 450 nm absorbance signal. Increasing concentrations of ARM-U2 displace increasing amounts of uPAR from uPA which is detected by anti-uPAR/biotin labeled antibodies followed by avidin-HRP. The sigmoidal binding isotherm of absorbance at 450 nm vs log ARM-U2 concentration can then by fit by non-linear regression analysis to obtain the IC50 for ARM-U2/uPAR binding (Equation S2) which can then be translated into a KI for ARM-U2/uPAR binding using a competitive binding model adapted from the Cheng-Prusoff equation relating KI to IC50 (Equation S3). The ELISA experiments were performed as followed: To Corning high binding 96 well flat bottom plates was added 100 μl/well of 100 nM urokinase in sterile PBS. The plates were sealed and left to incubate at 4° C. overnight. The plates were then washed 1× with 200 μl wash buffer (PBS+0.05% Tween-20) and 1× with 400 μl wash buffer. The plates were blotted on paper towel and blocked for 1 h shaking at room temp with 300 μl of a solution of thermo superblock in PBS per well. Molecule dilutions into solutions of a fixed concentration (10 nM) of uPAR were prepared in 0.025% triton-X/PBS on a separate low binding plate during the blocking hour. The plates were again washed followed by the addition of 100 μl of the ARM-U2/uPAR solution with 0.1% final DMSO concentration. The solutions were mixed by multichannel pipette, sealed, and incubated for 2 h with shaking at room temperature. The plates were then washed 1× with 200 μl wash buffer (PBS+0.05% Tween-20) and 2× with 400 μl wash buffer. The plates were blotted on a paper towel followed by the addition of 100 μl/well of a solution of biotinylated anti-uPAR antibody in 1% BSA/PBS. (R&D Systems, 3.3 μl taken from 50 μg/250 μl-1000× stock) and incubation with shaking for 1 h at room temp. The plates were washed 1× with 200 μl wash buffer and 2× with 400 μl wash buffer and blotted on a paper towel. 100 μl of avidin-HRP (stock −500× from e-bioscience) were added per well, incubated 20 min with shaking at room temp followed by washing 1× with 200 μl wash buffer and 3× with 400 μl wash buffer. The plates were blotted dry with paper towel and 100 μl of TMB substrate was added to each well. The emergence of blue color was monitored and the reaction quenched with the addition of 50 μl of 2M sulfuric acid to each well followed by measuring the absorbance at 450 nm using a fluorescence plate reader. […]
# [3] = target: T3, immobilized uPAR (Homo sapiens, UniProt Q03405); experiment: Direct ELISA binding assay on immobilized uPAR
# T3 construct: purchased R&D systems 807-UK-100-CF
# Method: Selected ARM-U2 derivatives were assayed for their ability to bind recombinant uPAR using a fluorescence quenching assay. The compounds stored at −20° C. as DMSO stocks were diluted into PBS aliquots at a fixed 50 nM concentration. Increasing concentrations of recombinant uPAR were mixed with each compound containing aliquot and the fluorescence of the solution measured following 1 h equilibration times. […] To confirm that the observation of uPAR dependent fluorescence quenching was indeed due to specific binding to uPAR and to validate ARM-U2 binding to uPAR specifically via the uPA binding site, a direct binding ELISA assay was developed. In this assay, clear 96-well high-binding plates from CoStar, were loaded with 100 μl/well of 50 nM recombinant uPAR 807-UK-100-CF from R&D systems prepared from a 100 μg/ml (approx. 2.1 μM) stock of uPAR in PBS and left overnight at room temperature to equilibrate. Following equilibration, the plate was washed with wash buffer 1× (400 μl/well of 0.05% Tween/PBS), blotted dry and blocked for 1 hr with 300 ul/well of 2% BSA/PBS. Following blocking, the plate was washed with 400 ul of the wash buffer and blotted dry. […] The absorbance at 450 nm was measured using an in-house Perkin-Elmer fluorescence plate reader.
# [4] = test system: anti-DNP antibodies; experiment: Affinity for anti-DNP antibodies; format: binding
# T1 sequence (Q03405 23-305): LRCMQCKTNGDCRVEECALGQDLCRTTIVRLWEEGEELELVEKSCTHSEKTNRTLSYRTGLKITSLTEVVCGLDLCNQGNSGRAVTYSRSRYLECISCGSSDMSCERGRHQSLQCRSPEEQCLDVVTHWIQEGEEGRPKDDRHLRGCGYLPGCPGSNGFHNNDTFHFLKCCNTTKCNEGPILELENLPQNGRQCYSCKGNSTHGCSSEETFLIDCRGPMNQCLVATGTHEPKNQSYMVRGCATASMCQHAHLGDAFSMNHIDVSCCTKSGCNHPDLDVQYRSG
# T3 sequence (Q03405 23-305): as above
# T2 sequence (Q03405 23-305): as above
Kd [1] [nM],uPAR binding affinity (order of magnitude) [2],Structure (SMILES),binding to immobilized uPAR vs parent derivative [3],affinity for anti-DNP antibodies [4]
275,triple digit nanomolar binding affinity,O=C(O)c1cccc(Nc2cc(N3CCC[C@H](C(=O)NCCCOCCOCCOCCCNc4ccc([N+](=O)[O-])cc4[N+](=O)[O-])C3)c3noc4c3c2C(=O)c2ccccc2-4)c1 [1-ABT-1],–,–
66,–,O=C1c2ccccc2-c2onc3c(N4CCC[C@H](C(=O)NCCOCCOCCOCCOCCOCCOCCOCCNc5ccc([N+](=O)[O-])cc5[N+](=O)[O-])C4)cc(Nc4ccc(S(=O)(=O)O)cc4S(=O)(=O)O)c1c23 [6-ABT-2],much higher affinity than parent derivative 1-ABT-1,–
–,–,O=C1c2ccccc2-c2onc3c(N4CCC[C@@H](C(=O)NCCCOCCOCCOCCCNc5ncccn5)C4)cc(Nc4ccc(S(=O)(=O)O)cc4S(=O)(=O)O)c1c23 [6-ABT-4],–,no affinity for anti-DNP antibodies
